The nature of series [1]: Hepatocyte Stability Assay, human. The format is in vitro ADME. The settings on record: for CLint scaled at 1 μM: cryopreserved hepatocytes in suspension, human hepatocytes, read-out: Human hepatocyte clearance; for Human hepatocyte intrinsic clearance, suspension Hheps ClInt (% Qh): suspension human hepatocytes.
Series [2] in a line: Hepatocyte Stability Assay, rat. For all read-outs here: tested at 1 µM. Format: in vitro ADME. As to conditions: for Rat hepatocyte clearance: rat hepatocytes; for Suspension Rat heps Clint (% Qh): suspension rat hepatocytes. On the procedure:
• Preparation of working solutions: 10 mM stock solutions of test compound and positive control were prepared in DMSO. In separate conical tubes, the 10 mM solution of test compound and the positive control were diluted to 100 μM by combining 198 μL of 50% acetonitrile/50% water and 2 μL of 10 mM stock.
Preparation of Hepatocytes: Incubation medium (William's E Medium supplemented with GlutaMAX) and hepatocyte thawing medium were placed in a 37° C. water bath and allowed warming for at least 15 minutes prior to use. A vial of cryopreserved hepatocytes was transferred from storage, ensuring that vials remained at cryogenic temperatures until thawing process ensued. Cells were thawed by placing the vial in a 37° C. water bath and gently shaking the vials for 2 minutes. After thawing was completed, vial was sprayed with 70% ethanol and transferred to a biosafety cabinet. Wide-bore pipette tip were used to transfer hepatocytes into 50 mL conical tube containing thawing medium. The 50 mL conical tube were placed into a centrifuge and spun at 100 g for 10 minutes. Upon completion of spin, thawing medium was aspirated and resuspended hepatocytes in enough incubation medium to yield ˜1.5×10^6 cells/mL. Using an AO/PI Staining, cells were counted and the viable cell density was determined. Cells with poor viability (<75% viability) were determined to be not acceptable for use. Cells were diluted with incubation medium to a working cell density of 0.5×10^6 viable cells/mL.
Procedure for Stability Determination: 198 μL of hepatocytes were pipetted into each wells of a 96-well non-coated plate. The plate was placed in the incubator to allow the hepatocytes to warm for 10 minutes. 2 μL of the 100 μM test compound or positive control solutions were pipetted into respective wells of the 96-well non-coated plate to start the reaction. The plate was returned to the incubator for the designed time points. Well contents was transferred in 25 μL aliquots at time points of 0, 15, 30, 60, 90 and 120 minutes. The aliquots were then mixed with 6 volumes (150 μL) of acetonitrile containing internal standard, IS (100 nM alprazolam, 200 nM caffeine and 100 nM tolbutamide) to terminate the reaction. The mixture was vortex for 5 minutes. Samples were centrifuged for 45 minutes at 3,220 g. An aliquot of 100 μL of the supernatant was diluted by 100 μL ultra-pure water, and the mixture was used for LC/MS/MS analysis. All incubations were performed in duplicate.
Data Analysis: All calculations were carried out using Microsoft Excel. Peak areas were determined from extracted ion chromatograms. In vitro half-life (t1/2) of parent compound was determined by regression analysis of the percent parent disappearance vs. time curve.
The in vitro half-life (in vitro t1/2) was determined from the slope value:
Conversion of the in vitro t1/2 (in min) into the in vitro intrinsic clearance (in vitro CLint, in μL/min/1×10^6 cells) was done using the following equation (mean of duplicate determinations):
V=incubation volume(0.2 mL);
N=number of hepatocytes per well(0.1×10^6 cells).
“+++” indicates a CLint value less than 20 mL/min/Kg, “++” indicates a CLint between 20 and 50 mL/min/Kg, and “+” indicates an CLint above 50 mL/min/Kg.

In a further series the target is T1, hERG channels (Homo sapiens, UniProt Q12809).
T1 construct: host or cells: HEK 293
T1 sequence (Q12809 whole entry): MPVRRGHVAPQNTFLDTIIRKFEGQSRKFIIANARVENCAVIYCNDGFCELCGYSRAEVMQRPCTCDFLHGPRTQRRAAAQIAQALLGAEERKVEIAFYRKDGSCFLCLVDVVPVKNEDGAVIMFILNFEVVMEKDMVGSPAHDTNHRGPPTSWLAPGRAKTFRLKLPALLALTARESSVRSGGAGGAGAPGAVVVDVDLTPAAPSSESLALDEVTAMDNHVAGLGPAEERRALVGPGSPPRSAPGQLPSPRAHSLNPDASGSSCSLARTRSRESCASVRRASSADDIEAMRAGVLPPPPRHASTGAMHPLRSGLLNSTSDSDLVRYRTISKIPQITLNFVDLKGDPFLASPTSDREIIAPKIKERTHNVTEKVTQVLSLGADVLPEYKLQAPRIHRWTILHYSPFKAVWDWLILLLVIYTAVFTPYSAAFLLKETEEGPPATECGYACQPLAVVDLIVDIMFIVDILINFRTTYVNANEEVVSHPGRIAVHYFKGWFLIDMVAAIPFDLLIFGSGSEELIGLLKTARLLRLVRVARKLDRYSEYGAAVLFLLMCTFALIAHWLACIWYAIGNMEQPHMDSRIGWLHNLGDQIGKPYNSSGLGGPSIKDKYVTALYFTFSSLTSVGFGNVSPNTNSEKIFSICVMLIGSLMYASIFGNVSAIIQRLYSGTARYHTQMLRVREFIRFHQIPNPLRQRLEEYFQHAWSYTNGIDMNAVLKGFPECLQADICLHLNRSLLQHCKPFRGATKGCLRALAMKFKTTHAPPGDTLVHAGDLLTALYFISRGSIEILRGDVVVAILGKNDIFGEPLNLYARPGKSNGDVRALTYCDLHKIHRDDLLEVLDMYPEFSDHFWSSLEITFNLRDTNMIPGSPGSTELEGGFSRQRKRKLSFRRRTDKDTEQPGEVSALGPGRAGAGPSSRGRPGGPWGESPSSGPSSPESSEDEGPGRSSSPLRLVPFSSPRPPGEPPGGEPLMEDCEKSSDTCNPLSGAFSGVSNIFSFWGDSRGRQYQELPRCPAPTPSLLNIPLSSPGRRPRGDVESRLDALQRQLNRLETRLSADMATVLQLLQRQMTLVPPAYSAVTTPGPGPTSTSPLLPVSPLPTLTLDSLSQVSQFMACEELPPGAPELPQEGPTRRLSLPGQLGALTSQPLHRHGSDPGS
In words: hERG Inhibition Assay, patch clamp in hERG stably expressed HEK 293 cell line. The format is cell-based. The settings on record: read-out: hERG channel: IC50. The procedure: hERG stably expressed HEK 293 cell line (Cat #K1236) was purchased from Invitrogen. The cells are cultured in 85% DMEM, 10% dialyzed FBS, 0.1 mM NEAA, 25 mM HEPES, 100 U/mL Penicillin-Streptomycin and 5 μg/mL Blasticidin and 400 μg/mL Geneticin. Cells are split using TrypLE™ Express about three times a week and maintained between ˜40% to ˜80% confluence. Before the assay, the cells were onto the coverslips at 5×10^5 cells/per 6 cm cell culture dish and induced with doxycycline at 1 μg/mL for 48 hours.
External solution (in mM): 132 NaCl, 4 KCl, 3 CaCl2), 0.5 MgCl2, 11.1 glucose, and 10 HEPES (pH adjusted to 7.35 with NaOH). Internal solution (in mM): 140 KCl, 2 MgCl2, 10 EGTA, 10 HEPES and 5 MgATP (pH adjusted to 7.35 with KOH). Working solution preparation for test compound: test compounds were initially prepared in DMSO with final concentration of 10 mM as stock solution. Stock solution of each compound was serial-diluted by ratio of 1:3 with DMSO to prepare additional 3 intermediate solutions including 3.33, 1.11 and 0.37 mM.
Before performing the hERG assay, the working solutions were prepared by dilution of 10, 3.33, 1.11, and 0.37 mM intermediate solutions in 1000 folds using extracellular solution, while 30 μM working solution was prepared by 333.333-folds dilution of 10 mM DMSO stock. so that the final concentration of working solution was 30, 10, 3.33, 1.11 and 0.37 μM. The final DMSO concentration in working solutions was maintained in range of 0.1-0.3% (v/v).
Experimental procedure: the coverslip was removed from the cell culture dish and placed it on the microscope stage in bath chamber. A desirable cell was located using the ×10 objective. The tip of the electrode was located under the microscope using the ×10 objective by focusing above the plane of the cells. Once the tip was in focus, the electrode was advanced downwards towards the cell using the coarse controls of the manipulator, while simultaneously moving the objective to keep the tip in focus. When directly over the cell, the fine controls of the manipulator were used to approach the surface of the cell in small steps, by using the ×40 objective. Gentle suction was applied through the side-port of the electrode holder to form a gigaohm seal.
Cfast was used to remove the capacity current that is in coincidence with the voltage step. The whole cell configuration was obtained by applying repetitive, brief, strong suction until the membrane patch has ruptured. membrane potential was set to −60 mV at this point to ensure that hERG channels were not open. The spikes of capacity current was then cancelled using the Cslow on the amplifier.
Holding potential was set to −90 mV for 500 ms; current was recorder at 20 kHz and filtered at 10 kHz. Leaking current was tested at −80 mV for 500 ms.
The hERG current was elicited by depolarizing at +30 mV for 4.8 seconds and then the voltage was taken back to −50 mV for 5.2 seconds to remove the inactivation and observe the deactivating tail current. The maximum amount of tail current size was used to determine hERG current amplitude. Current was recorded for 120 seconds to assess current stability. Only stable cells with recording parameters above threshold were proceeded with further drug administrations. Vehicle control was applied to the cells to establish the baseline. […] For dose response testing, 5 doses of test compound was applied to the cells cumulatively from low to high concentrations. In order to ensure the good performance of cultured cells and operations, the positive control, Dofetilide, with 5 doses was also used to test the same batch of cells.
The following criteria were used to determine data acceptability: initial seal resistance>1 GΩ; leak currents<50% of the control peak tail currents at any time; the peak tail amplitude>300 pA; membrane resistance Rm>500 MΩ; access resistance (Ra)<15 MΩ; apparent run-down of peak current<2.5% per min. […]

Structures are written as SMILES.

Here are results for 16 compounds from patent US20230295152A1 (SENDA BIOSCIENCES, INC., priority 2019, published 2023).

`C[C@@H](CO)n1cnc2c(-c3cccc(F)c3)nc(-c3ccc(Cl)cc3)cc2c1=O` [Compound 7]: the CLint scaled at 1 μM in series [1] was 20 to 50 mL/min/kg. The Rat hepatocyte clearance result in series [2] was “++ (“++” indicates a CLint between 20 and 50 mL/min/Kg)”. At hERG channels, the IC50 is over 30 µM.

`CC(C)(O)Cn1cnc2c(-c3cccnc3)nc(-c3ccc(C(F)(F)F)nc3)cc2c1=O` [Compound 9]: in series [1], the CLint scaled at 1 μM is under 20 mL/min/kg and the “Human hepatocyte intrinsic clearance, suspension Hheps ClInt (% Qh)” value is under 31 % Qh. Further, in series [2], the Rat hepatocyte clearance result was “+++ (“+++” indicates a CLint value less than 20 mL/min/Kg)” and the “Suspension Rat heps Clint (% Qh)” value was under 24 % Qh. In addition, the IC50 at hERG channels worked out at 12.1 µM.

`C[C@@H](CO)n1cnc2c(-c3cccnc3)nc(-c3ccc(C(F)(F)F)nc3)cc2c1=O` [Compound 12]: the CLint scaled at 1 μM in series [1] was under 20 mL/min/kg. Also, the Rat hepatocyte clearance result in series [2] is given as “+++ (“+++” indicates a CLint value less than 20 mL/min/Kg)”. For the same compound, the IC50 on hERG channels is over 10 µM.

As to `CC(C)(O)Cn1cnc2c(-c3cccnc3)nc(-c3ccc(C(F)(F)F)cc3)cc2c1=O` [Compound 16], the CLint scaled at 1 μM in series [1] was under 20 mL/min/kg. The Rat hepatocyte clearance result in series [2] was “+++ (“+++” indicates a CLint value less than 20 mL/min/Kg)”. Also, the IC50 at hERG channels is 4.31 µM.

Turning to `CC(C)(O)Cn1cnc2c(-c3cccnc3)nc(-c3ccc(Cl)cc3)cc2c1=O` [Compound 18], the CLint scaled at 1 μM in series [1] was under 20 mL/min/kg. Moreover, the Rat hepatocyte clearance entry in series [2] was “+++ (“+++” indicates a CLint value less than 20 mL/min/Kg)”. Also, at hERG channels, the IC50 is 5.28 µM.

With `C[C@@H](CO)n1cnc2c(-c3cnn(C)c3)nc(-c3ccc(Cl)cc3)cc2c1=O` [Compound 27], the CLint scaled at 1 μM in series [1] is under 20 mL/min/kg. Besides, the Rat hepatocyte clearance entry in series [2] is “+++ (“+++” indicates a CLint value less than 20 mL/min/Kg)”. For the same compound, the IC50 on hERG channels is over 10 µM.

Consider `C[C@H](n1cnc2c(-c3cnn(C)c3)nc(-c3ccc(Cl)cc3)cc2c1=O)C(C)(C)O` [Compound 30], for which the CLint scaled at 1 μM in series [1] was under 20 mL/min/kg. Besides, in series [2], the Rat hepatocyte clearance result is “++ (“++” indicates a CLint between 20 and 50 mL/min/Kg)”. The IC50 at hERG channels was over 30 µM.

In the case of `C[C@@H](CO)n1cnc2c(-c3cccnc3)nc(-c3ccc(C(F)(F)F)cn3)cc2c1=O` [Compound 46, (S)-3-(1-hydroxypropan-2-yl)-8-(pyridin-3-yl)-6-(5-(trifluoromethyl)pyridin-2-yl)pyrido[3,4-d]pyrimidin-4(3H)-one], in series [1], the CLint scaled at 1 μM is under 20 mL/min/kg and the “Human hepatocyte intrinsic clearance, suspension Hheps ClInt (% Qh)” value is on record as under 31 % Qh. Further, in series [2], the Rat hepatocyte clearance result is on record as “+++ (“+++” indicates a CLint value less than 20 mL/min/Kg)” and the “Suspension Rat heps Clint (% Qh)” value is on record as under 24 % Qh. For the same compound, the IC50 at hERG channels is 8.63 µM.

As for `C[C@@H](CO)n1cnc2c(-c3cccc(F)c3)nc(-c3ccc(C(F)(F)F)cn3)cc2c1=O` [Compound 47, (S)-8-(3-fluorophenyl)-3-(1-hydroxypropan-2-yl)-6-(5-(trifluoromethyl)pyridin-2-yl)pyrido[3,4-d]pyrimidin-4(3H)-one], the CLint scaled at 1 μM in series [1] is under 20 mL/min/kg. For the same compound, the Rat hepatocyte clearance entry in series [2] is “+++ (“+++” indicates a CLint value less than 20 mL/min/Kg)”.

Turning to `Cn1cc(-c2nc(-c3ccc(C(F)(F)F)nc3)cc3c(=O)n(CC(C)(C)O)cnc23)cn1` [Compound 60], in series [1], the CLint scaled at 1 μM was under 20 mL/min/kg. Besides, the Rat hepatocyte clearance entry in series [2] was “+++ (“+++” indicates a CLint value less than 20 mL/min/Kg)”. Besides, on hERG channels, the IC50 was over 30 µM.

`C[C@@H](CO)n1cnc2c(-c3cnn(C)c3)nc(-c3ccc(C(F)(F)F)nc3)cc2c1=O` [Compound 68]: the CLint scaled at 1 μM in series [1] was under 20 mL/min/kg. Moreover, the Rat hepatocyte clearance result in series [2] is listed as “+++ (“+++” indicates a CLint value less than 20 mL/min/Kg)”. In addition, the IC50 on hERG channels is over 30 µM.

Regarding `C[C@@H](CO)n1cnc2c(-c3cccnc3)nc(-c3ccc(C4CC4)nc3)cc2c1=O` [Compound 74], the CLint scaled at 1 μM in series [1] was under 20 mL/min/kg. Also, in series [2], the Rat hepatocyte clearance result is “++ (“++” indicates a CLint between 20 and 50 mL/min/Kg)”. The IC50 on hERG channels was 4.84 µM.

`O=c1c2cc(-c3ccc(C(F)(F)F)nc3)nc(-c3cccnc3)c2ncn1[C@@H]1COC[C@H]1O` [Compound 79]: the CLint scaled at 1 μM in series [1] is under 20 mL/min/kg. The Rat hepatocyte clearance result in series [2] is listed as “+++ (“+++” indicates a CLint value less than 20 mL/min/Kg)”. The IC50 on hERG channels was over 30 µM.

In the case of `Cn1cc(-c2nc(-c3ccc(C(F)(F)F)cn3)cc3c(=O)n(CC(C)(C)O)cnc23)cn1` [Compound 103, 3-(2-hydroxy-2-methylpropyl)-8-(1-methyl-1H-pyrazol-4-yl)-6-(5-(trifluoromethyl)pyridin-2-yl)pyrido[3,4-d]pyrimidin-4(3H)-one], the CLint scaled at 1 μM in series [1] was under 20 mL/min/kg. Moreover, in series [2], the Rat hepatocyte clearance result is “++ (“++” indicates a CLint between 20 and 50 mL/min/Kg)”. Also, the IC50 on hERG channels was over 10 µM.

Take `CC(C)(O)Cn1cnc2c(-c3cccnc3)nc(-c3ccc(C(F)(F)F)cn3)cc2c1=O` [Compound 105]: the CLint scaled at 1 μM in series [1] was under 20 mL/min/kg. Also, the Rat hepatocyte clearance result in series [2] is “+++ (“+++” indicates a CLint value less than 20 mL/min/Kg)”. Also, the IC50 on hERG channels turned out to be 11.8 µM.

In the case of `CC(C)(O)Cn1cnc2c(-n3ccnc3)nc(-c3ccc(C(F)(F)F)cn3)cc2c1=O` [Compound 160, 3-(2-hydroxy-2-methylpropyl)-8-(1H-imidazol-1-yl)-6-(5-(trifluoromethyl)pyridin-2-yl)pyrido[3,4-d]pyrimidin-4(3H)-one], in series [1], the CLint scaled at 1 μM was under 20 mL/min/kg. Moreover, the IC50 on hERG channels is 11.5 µM.
